Reference: article PMC6147235 (iScience, 2018)

Tested on: WT OPS, G51A, T17M, P171Q, P180A
Test: Subcellular localization
Format: cell-based, human
Details: 10 µM all-trans retinal, P180A in COS-7 cells

CC1=C(/C=C/C(C)=C/C=C/C(C)=C/C=O)C(C)(C)CCC1 [all-trans retinal]
effect on subcellular localization (PCC and RetP1/1D4): no effect
